{"source": "patent US10555959B2", "about": "“Glycolipids as treatment for disease” (La Jolla Pharmaceutical Company, priority 2009, dated 2020)", "key": {"[1]": {"system": "melanoma", "details": "cited from earlier work"}, "[2]": {"system": "human adippose tissue", "details": "human adipose tissue, in vitro; cited from earlier work"}, "[3]": {"system": "KATP channels", "details": "in vitro; by activation of the KATP channels; ceramide fatty acid of C16:0; cited from earlier work"}, "[4]": {"system": "C57B1/6 mice treated with MPTP", "assay": "Animal model of Parkinson's and atypical Parkinson's disease (MPTP)", "type": "in vivo, mouse", "details": "daily administration for three weeks", "experimental": "C57B1/6 mice 7-8 weeks of age can be treated with MPTP (b.i.d., 20 mg/kg, s.c.). The mice also receive a daily administration of saline, compound of formula (1), (2), (3), (4), (5), (6), (7), (8), (9) or (10) (1, 10 and 30 mg/kg, o.s.) or (0.3. to 3 mg/kg, i.p. or s.c.) for three weeks starting 24 h after the last MPTP injection. The brains are removed and analyzed for striatum and substantia nigra pars compacta dopamine levels. The midbrain is fixed for TH immunohistochemistry and dopamine neuron cell counts."}, "[5]": {"system": "mouse cortical cells", "assay": "Protection of cortical cells from apoptosis (hydrogen peroxide, MTT assay)", "type": "cell-based", "details": "approx. 0.1 μM; 50 μM hydrogen peroxide; cell death by MTT assay", "experimental": "To induce apoptosis, mouse cortical cells were cultured and treated with 50 μM hydrogen peroxide for three hours prior to being treated with the ganglioside analogue.\nThe cells were also treated with the hydrogen peroxide during treatment with the ganglioside analogue and post-treatment for 48 h. Cell death was assayed using the MTT assay."}, "[6]": {"system": "SUR-1−/− Mice", "details": "cited from earlier work"}}, "data": [{"substance": "Neu5Ac3Gal3GalNAc4(Neu5Ac8Neu5Ac3)Gal4GlcCer [GT1b]", "values": [{"measurement": "growth of melanoma", "setting": "[1]", "result": "suppress"}]}, {"substance": "sulfatide", "values": [{"measurement": "expression of adiponectin", "setting": "[2]", "result": "increased"}, {"measurement": "levels of IL-6", "setting": "[2]", "result": "decreasing"}, {"measurement": "levels of IL-8", "setting": "[2]", "result": "decreasing"}, {"measurement": "levels of TNF-alpha", "setting": "[2]", "result": "decreasing"}, {"measurement": "glucose stimulation of insulin secretion", "setting": "[3]", "result": "inhibited"}]}, {"substance": "Gal3GalNAc4(Neu5Ac3)Gal4GlcCer [GM1]", "values": [{"measurement": "striatal dopamine levels", "setting": "[4]", "result": "increase striatal dopamine levels to approximately the same extent"}, {"measurement": "protection of the cells from apoptosis", "setting": "[5]", "result": "approximately 20%"}]}, {"substance": "Exendin-(9-39)", "values": [{"measurement": "fasting blood glucose levels", "setting": "[6]", "result": "Significantly Raises"}]}, {"substance": "Neu5Ac8Neu5Ac3Gal3GalNAc4(Neu5Ac8Neu5c3)Gal4GlcCer [GQ1b]", "values": [{"measurement": "growth of melanoma", "setting": "[1]", "result": "suppress"}]}, {"substance": "Gal3GalNAc4(Neu5Ac8Neu5Ac3)Gal4GlcCer [GD1b]", "values": [{"measurement": "growth of melanoma", "setting": "[1]", "result": "suppress"}]}]}
